These results are taken from patent publication US20050148656A1, “Carboxylic derivates” (priority 2003, published 2005).

Bounds are passed on as bounds.

One assay has as its system PPARγ. The assay can be described thus: Luciferase reporter assay in transiently transfected cells, PPARγ activation. The format is cell-based, human and murine. On the procedure:
(§1) The compounds of the invention were tested in the assays described in WO 03/051821.
(§2) Stock solutions of compounds in DMSO were diluted in appropriate concentration ranges in master plates. From master plates, compounds were diluted in culture media to obtain test compound solutions for final doses.
(§3) After adjustment of the amount of cell medium to 75 μl in each well, 50 μl test compound solution was added. Transiently transfected cells were exposed to compounds for about 24 hours before the luciferase detection assay was performed. For luciferase assays, 100 μl of assay reagent was added manually to each well and plates were left for approximately 20 minutes in order to allow lysis of the cells. After lysis, luciferase activity was measured in a 1420 Multiwell counter, Victor, from Wallach.
(§4) The TZD pioglitazone was used as reference substance for activation of both human and murine PPARγ. 5,8,11,14-Eicosatetrayonic acid (ETYA) was used as reference substance for human PPARα.
(§5) For calculation of EC50 values, a concentration-effect curve was established. Values used were derived from the average of two or three independent measurements (after subtraction of the background average value) and were expressed as the percentage of the maximal activation obtained by the reference compound. Values were plotted against the logarithm of the test compound concentration. EC50 values were estimated by linear […] between the data points and calculating the concentration required to achieve 50% of the maximal activation obtained by the reference compound.

The target of a further assay is T1, human PPARα (Homo sapiens, UniProt Q07869).
T1 construct: expressed in transfected cells
T1 sequence (Q07869 1-468): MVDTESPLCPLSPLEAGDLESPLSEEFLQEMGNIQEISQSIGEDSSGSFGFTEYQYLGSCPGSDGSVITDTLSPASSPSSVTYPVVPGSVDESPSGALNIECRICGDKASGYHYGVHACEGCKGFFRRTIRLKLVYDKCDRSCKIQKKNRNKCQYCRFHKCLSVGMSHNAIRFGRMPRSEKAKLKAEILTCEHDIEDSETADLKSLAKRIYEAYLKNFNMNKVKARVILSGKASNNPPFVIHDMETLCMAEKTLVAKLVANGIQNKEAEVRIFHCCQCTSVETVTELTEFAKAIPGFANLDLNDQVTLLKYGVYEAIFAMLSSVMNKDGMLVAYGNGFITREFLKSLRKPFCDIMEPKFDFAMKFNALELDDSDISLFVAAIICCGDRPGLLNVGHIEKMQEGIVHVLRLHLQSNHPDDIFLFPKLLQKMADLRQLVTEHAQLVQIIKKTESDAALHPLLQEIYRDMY
The assay can be described thus: Luciferase reporter assay in transiently transfected cells, PPARα activation. It is filed as cell-based. To be noted: 50% of maximal activation obtained by reference compound (ETYA); about 24 hours exposure. On the procedure: as §1, §2, §3, §4, §5
On the technique in general: Reporter assays use an easily measured gene product as a stand-in for the process of interest.

By EC50 is commonly meant the concentration that produces a half-maximal response. A higher EC50 goes with weaker potency. In the case of `CCO[C@@H](Cc1ccc(OCC(=O)N(Cc2ccc(Cl)cc2)Cc2ccc(Cl)cc2)cc1)C(=O)O` [Example 12, (2S)-3-(4-{2-[bis(4-Chlorobenzyl)amino]-2-oxoethoxy}phenyl)-2-ethoxypropanoic acid], in the assay with PPARγ, the “ratio EC50 (PPARγ):EC50 (PPARα)” value is greater than 1000. In addition, at human PPARα, it took 3 nM to reach a half-maximal effect (EC50).

Consider `CCO[C@@H](Cc1ccc(OCC(=O)N(Cc2ccc(Cl)cc2)Cc2ccc(C(C)(C)C)cc2)cc1)C(=O)O` [Example 13, (2S)-3-(4-{2-[(4-tert-Butylbenzyl)(4-chlorobenzyl)amino]-2-oxoethoxy}phenyl)-2-ethoxypropanoic acid], for which the “ratio EC50 (PPARγ):EC50 (PPARα)” value in the assay with PPARγ is greater than 400. This compound registered a concentration for a half-maximal effect (EC50) on human PPARα of 8 nM.

With `CCO[C@@H](Cc1ccc(OCC(=O)N(Cc2ccc(C(F)(F)F)cc2)Cc2ccc(C(F)(F)F)cc2)cc1)C(=O)O` [Example 15, (2S)-3-[4-(2-{bis[4-(Trifluoromethyl)benzyl]amino}-2-oxoethoxy)phenyl]-2-ethoxypropanoic acid], the “ratio EC50 (PPARγ):EC50 (PPARα)” value in the assay on PPARγ is given as greater than 900. A half-maximal response at human PPARα (EC50) required 3 nM.
